{"source": "patent US8450479B2", "about": "“3-substituted-4-oxo-3,4-dihydro-imidazo[5,1-d][1,2,3,5-tetrazine-8-carboxylic acid amides and their use” (Pharminox Limited, priority 2007, dated 2013)", "tested_on": "range of other cell lines (e.g., colon, melanoma)", "experiment": "MTT assay, other cell lines", "format": "cell-based", "details": "for activity in words: other lines (e.g., colon, melanoma)", "excerpt": "This assay was first described in Mosmann, T., 1983, “Rapid colorimetric assay for cellular growth and survival: Application to proliferation and cytotoxicity assays”, Journal of Immunological Methods, Vol. 65, Nos. 1-2, pp. 55-63.\nGlioma cell lines, SNB19 and U373, both MGMT transfected (i.e., SNB19M and U373M) and vector controls (i.e., SNB19V and U373V); colorectal carcinoma cell lines, HCT116, HT29, and DLD1; melanoma cell line, SKMEL-28; breast cell line, MCF-7; and normal human fetal lung fibroblast cell line, MRC-5; were harvested at 60-80% confluence—during the logarithmic phase of growth.\nFollowing harvesting, cells in suspension were gently syringed through a 23 gauge needle to obtain a near-single cell suspension. The desired cell seeding densities were used and added into 96-well plates in 180 μL culture medium if only one test compound was to be added, or 160 μL if two test compounds were to be added in combination, which were allowed to attach at 37° C. (5% CO2) overnight. For the 7 day assay, the cell seeding density for different cell lines was as follows: SNB19V, SNB19M: 650 cells/well; U373V, U373M: 650 cells/well; SNB19VR, U373VR: 650 cells/well; HCT116, DLD-1, SKMEL-28, MRC-5, MCF-7: 400 cells/well.\nThe two peripheral lanes were used as blank wells (cell free) and filled with 200 μL of medium in order to minimise medium evaporation from the plate. A separate time zero (T0) plate was set up alongside other plates. Serial dilutions in tissue culture medium of a 100 mM stock of test compound in DMSO were prepared immediately before each assay to ten times the final concentrations required, and then 20 μL was added to each well (200 μL total media per well) to achieve final concentrations of 0.5 μM, 1 μM, 5 μM, 10 μM, 50 μM, 100 μM, 500 μM, and 1000 μM. A minimum of four wells received the same test compound concentration. To control wells, including those in the T0 plate, 20 μL of medium was added. Previous assays had been carried out to verify that cell viability was not affected by the amount of DMSO added into the test compound-treated wells. A separate plate treated in the same way, but free of test compound, was used as a measure of cell viability at the time of drug addition (day 0).\nAfter incubation at 37° C., 5% CO2 for 7 days (or immediately for the day 0 plate), cell viability was quantified using the MTT assay. 50 μL of sterile filtered MIT (3-(4,5-dimethylthiazol-2-yl)-2,5-diphenyltetrazolium bromide) (2 mg/mL in phosphate buffered saline) were added to each well (final concentration 0.4 mg/mL) and the plates were re-incubated for 4 hours to allow metabolic conversion of MTT by dehydrogenases in viable cells to insoluble formazan crystals. The medium and any unconverted MTT was aspirated, 150 μL of DMSO was added to each well, and the plates were shaken on a plate shaker (Stuart Scientific 503) to ensure complete formazan solubilisation.\nThe intensity of absorbance is directly proportional to cell viability. A linear relationship exists between cell number and the amount of formazan and so the mean absorbance determined for each well of the same concentration can be used as a quantitative measure of viable cells compared to the controls. A graph of absorbance against drug concentration was plotted and the test compound concentration (GI50) causing 50% inhibition of control cell growth (absorbance increase from day 0) was calculated by interpolation.", "data": [{"smiles": "C#CCn1nnc2c(C(N)=O)ncn2c1=O", "note": "[EE-001, 3-Propargyl-8-carbamoylimidazotetrazin-4-one]", "values": [{"measurement": "activity in words", "value": "more potent than TMZ"}]}, {"smiles": "Cn1nnc2c(C(N)=O)ncn2c1=O", "note": "[TMZ, 3-Methyl-4-oxo-3,4-dihydro-imidazo[5,1-d][1,2,3,5]tetrazine-8-carboxylic acid amide, reference compound]", "values": [{"measurement": "GI50", "setting": "range of other cell lines (Table 1)", "value": "200 to 700", "unit": "µM"}]}, {"smiles": "C[S+]([O-])Cn1nnc2c(C(N)=O)ncn2c1=O", "note": "(stereo not drawn) [UU-003, 3-Methanesulfinylmethyl-4-oxo-3,4-dihydro-imidazo[5,1-d][1,2,3,5]tetrazine-8-carboxylic acid amide]", "values": [{"measurement": "activity in words", "value": "surprising efficacy"}]}]}
